{
  "source": "patent US6177475A",
  "about": "“Methods of using integrin modulators for treatment of inflammation” (priority 1997, dated 2001)",
  "key": {"[1]": {"tested_on": "VLA-4 (MV3 cells, VCAM-1)", "experiment": "VLA-4-dependent adhesion of human melanoma MV3 cells to VCAM-1", "type": "cell-based", "conditions": "MV-3, 1 h, 37° C.", "description": "Microtiter plates were coated with ligands of the integrin VLA-4, i.e., recombinant human VCAM-1 (500 nanograms per well) or the fragment of connective segment of human fibronectin (CS-1), covalently attached to ovalbumin (5 micrograms per well) by overnight incubation (4° C.) with solutions of the proteins in phosphate-buffered saline (PBS). The plates were blocked with 1% bovine serum albumin (BSA) in Hanks' buffered salt solution (HBSS-BSA). The cells (Jurkat or human melanoma MV3) were labeled with the fluorescent dye 5-chloromethylfluorescein diacetate (CMFDA) and introduced into the wells of the plates (10^5 cells per well) together with varying amounts of Ajoene. After incubation at 37° C. for 1 h, the unbound cells were removed by aspiration and the wells washed four times with HBSS-BSA. Thereafter, the bound cells were lysed with 0.5% Triton X-100, and the fluorescence was measured using a Cytofluor 2300 plate reader. The number of adherent cells was calculated from a standard dilution curve of Triton X-100 lysates of the CMFDA-labeled cells."}, "51Cr-labeled monocytes": {"tested_on": "51Cr-labeled monocytes", "experiment": "Monocyte recruitment to inflamed joints in rat adjuvant arthritis", "type": "in vivo", "conditions": "50 mg/kg i.v.; for Accumulation of 51Cr-labeled Monocytes (mean ± SEM): 2 h", "description": "Rat adjuvant arthritis is characterized by integrin-mediated migration of ^51 Cr-labeled monocytes and ^111 In-labeled neutrophils into the inflamed synovium, which attains maximum between days 14 and 21 after the immunization. This model of human rheumatoid arthritis was used to assess in vivo effects of Ajoene on integrins that are known to be modulated by Ajoene in vitro.\nAdjuvant arthritis was induced in 6-8 week old inbred male Lewis rats by immunization on the lower back with 0.5 mg Mycobacterium butyricum (Difco Laboratories, Inc., Detroit, Mich.) in 0.05 ml mineral oil in two sites subcutaneously at the base of the tail. All the animals developed polyarticular arthritis between days 11 and 13 after immunization. For clinical scoring, 0-4 points were assigned per limb and tail, based on the severity of erythema, swelling, and limitation of movement (the maximal possible score was 20).\nRat blood monocytes and neutrophils for migration studies were obtained by the hydroxyethyl starch (HES) exchange transfusion technique. The total blood volume of a donor rat was exchanged using 50 ml 6% HES solution in saline (DuPont Chemical Co., Dorval, Canada). After recovery of 40-45 ml blood/HES perfusate, the red cells were allowed to sediment (1 g) and the leukocyte-rich plasma was harvested. The leukocytes were recovered by centrifugation, resuspended in calcium-magnesium-free Tyrode's solution supplemented with 10% platelet-poor plasma (TS-PPP), and centrifuged in a discontinuous 63%/74% gradient of isotonic Percoll (Pharmacia Fine Chemicals, Dorval, Canada). The top layer, containing mononuclear cells (MN), and the cells in the 63%/74% interface, containing neutrophils, were collected, washed, and resuspended in TS-PPP. To obtain purified monocytes, the osmolality of the MN suspension was increased by adding 9% NaCl, and the suspension was centrifuged in a 40%/55%/58% Percoll gradient; monocytes were harvested at 40%/55% and […] interfaces, washed, and resuspended in TS-PPP.\nThereafter, monocytes (10^7 cells/ml) were labeled with 75 microCurie/ml of Na2^51 CrO4 (Amersham, Oakville, Canada) at 37° C. for 30 min. Neutrophils (10^7 cells/ml) were labeled with 1 microCurie/ml of ^111 In oxine (Amersham) for 10 min. Both populations were washed to remove excess labeled material and checked for viability and purity. The viability of either cell population used in the experiments was in excess of 95% (as double-checked by Trypan blue exclusion and neutral red staining). The separation procedure described above ordinarily produced populations that contained no less than 90% monocytes and no less than 95% neutrophils. […]"}},
  "data": [
    {"smiles": "C=CCSSC=CC[S+]([O-])CC=C", "note": "(centres unmarked) [Ajoene, 4,5,9-trithiadodeca-1,6,11-triene-9-oxide]", "values": [
      {"measurement": "IC50", "setting": "[1]", "value": 125, "unit": "µM"},
      {"measurement": "inhibition of monocyte recruitment to the talar joints", "setting": "51Cr-labeled monocytes", "value": "~ 50%"},
      {"measurement": "Accumulation of 51Cr-labeled Monocytes (mean ± SEM)", "setting": "51Cr-labeled monocytes; talar joint, P < 0.006 vs control", "value": "25,078 cpm per sample"},
      {"measurement": "Accumulation of 51Cr-labeled Monocytes (mean ± SEM)", "setting": "51Cr-labeled monocytes; tarsal joint, N.S.", "value": "10,365 cpm per sample"},
      {"measurement": "Accumulation of 51Cr-labeled Monocytes (mean ± SEM)", "setting": "51Cr-labeled monocytes; vertebral joints, P = 0.079", "value": "2,737 cpm per sample"}
    ]}
  ]
}
